Patent US20110201629A1, “CYCLOHEXYL AMIDE DERIVATIVES AS CRF RECEPTOR ANTAGONISTS” (priority 2010, published 2011)
pIC50: −log10 of the molar value.

Assays:
CRF-2 = biological target: T1, CRF-2 (UniProt Q13324); assay: CRF-2 receptor antagonism, HTRF cAMP assay in CHO cells; assay type: cell-based, human; settings: Biological data Table 2; inhibition of CRF induced cAMP response in CHO cells, EC50 concentration of CRF
T1 sequence (Q13324 1-411): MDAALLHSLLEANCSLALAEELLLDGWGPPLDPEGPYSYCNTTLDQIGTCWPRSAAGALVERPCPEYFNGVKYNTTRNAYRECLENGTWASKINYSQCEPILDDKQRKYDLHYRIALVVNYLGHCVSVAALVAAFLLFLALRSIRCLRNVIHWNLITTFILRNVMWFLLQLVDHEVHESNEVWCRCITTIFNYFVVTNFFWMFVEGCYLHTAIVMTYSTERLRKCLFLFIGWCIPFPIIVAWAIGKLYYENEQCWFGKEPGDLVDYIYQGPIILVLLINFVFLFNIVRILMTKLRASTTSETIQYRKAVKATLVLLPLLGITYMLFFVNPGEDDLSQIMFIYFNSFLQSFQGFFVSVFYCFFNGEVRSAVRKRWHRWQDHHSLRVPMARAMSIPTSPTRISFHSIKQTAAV
Description: (§1) The CRF-1 and CRF-2 receptor antagonistic activity of the agents of the invention has been determined in vitro in the following assay:
(§2) Chinese hamster ovary (CHO) cells expressing either the human or rat recombinant CRF-1 or human CRF-2α (Chen et al, Proc Natl Acad Sci USA 90, 8967-8971, 1993; Liaw et al, Endocrinology 137, 72-77, 1996) are propagated in Dulbecco's modified Eagle medium supplemented with 10% foetal calf serum, non-essential amino acids, 100 U/ml penicillin, 100 mg/l streptomycin and 1 g/l geneticin. CHO cells expressing the rat CRF-2β receptor (Wu et al, Endocrinology 148, 1675-1687, 2007) are propagated in HAM's-F12 Glutamax supplemented with 10% foetal calf serum, 100 IU/ml penicillin, 100 mg/l streptomycin, 600 μg/ml hygromycin, 10 μg/ml blasticidin and induced with 1 μg/ml of tetracyclin for 24 hours prior to experimentation. For cyclic AMP determinations the Homogeneous Time-Resolved Fluoresce (HTRF) cAMP dynamic 2 kit (Cisbio International, France) was used as per manufacturers' instructions. CHO cells, previously cryopreserved at 3×10^6 viable cells per ml of cell recovery media (Cat no. 12648-010, Invitrogen), were thawed, centrifuged for 7 mins at 1200 rpm and resuspended in serum free media to give a concentration of 0.5×10^6 cells per/ml. Compounds of the invention, prepared in DMSO, and subsequently diluted 50 fold in assay buffer (1× Hanks balanced salt solution, 0.2% (w/v) bovine serum albumin, 1.7 mM isobutylmethylxanthine and 10 mM Hepes, pH7.4) were then added onto the 384 well low volume black assay plate (Corning Inc, US, Cat. 3676). 2000 cells/well were then added to the assay plate further diluting the compound 2 fold and then the plate was incubated for 15 mins at room temperature. Following incubation, buffer containing a 5 times final concentration of agonist, typically r/h CRF is added to the plate and incubated for 30 min at room temperature. Finally, d2 dye labeled cAMP and cryptate labeled anti-cAMP antibody, both made in lysis buffer, are added to the plate followed by a settling period of 1 hour at room temperature. During the settling period cAMP produced by the cells competes with the d2 labelled cAMP for the anti-cAMP cryptate. The plate is read on the Pherastar (BMG, Germany). Increasing levels of endogenous cAMP produced by cells can be followed by a decrease of FRET fluorescent signal and vice versa. Values represented by a change in arbitrary fluorescence units are converted into cAMP concentrations by use of a standard curve, the reagents for which are supplied with the kit. Antagonist dose response curves (1 nM-31.6 μM) are constructed and tested in the presence of an EC50 concentration of CRF relevant to the receptor (hCRF-1=3 nM, hCRF-2α=2 nM, rCRF-1=1 nM and rCRF-2β=0.1 nM). IC50 values of antagonists are calculated by fitting the percent inhibition of CRF induced cAMP response by increasing concentrations of the antagonists. The fit is performed using the nonlinear logistic function of the Activitybase software package v 5.4.5.27 (IDBS, UK).

CRF-1 = biological target: T2, CRF-1 (UniProt P34998); assay: CRF-1 receptor antagonism, HTRF cAMP assay in CHO cells; assay type: cell-based, human; settings: Biological data Table 2; inhibition of CRF induced cAMP response in CHO cells, EC50 concentration of CRF
T2 sequence (P34998 1-415): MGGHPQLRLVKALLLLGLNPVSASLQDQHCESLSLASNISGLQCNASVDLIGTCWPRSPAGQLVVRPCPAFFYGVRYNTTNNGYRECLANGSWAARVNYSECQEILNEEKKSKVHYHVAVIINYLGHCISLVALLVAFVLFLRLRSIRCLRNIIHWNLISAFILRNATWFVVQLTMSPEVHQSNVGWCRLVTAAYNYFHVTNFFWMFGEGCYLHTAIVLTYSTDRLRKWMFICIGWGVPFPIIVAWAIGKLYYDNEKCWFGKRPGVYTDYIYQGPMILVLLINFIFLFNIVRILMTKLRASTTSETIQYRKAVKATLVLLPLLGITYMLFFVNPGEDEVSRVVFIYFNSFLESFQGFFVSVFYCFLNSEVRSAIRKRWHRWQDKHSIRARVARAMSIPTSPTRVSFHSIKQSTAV
Description: as §1, §2

SMILES	pIC50 (CRF-2)	pIC50 (CRF-1)
Cc1cc2c(cc1C)C(C)(F)C(=O)N2C[C@H]1CC[C@H](NC(=O)c2cc(Cl)cnc2C)CC1 (single isomer, unassigned; enantiomer 1) [Example 2.54, Enantiomer 1 of Trans-5-Chloro-N-[4-(3-fluoro-3,5,6-trimethyl-2-oxo-2,3-dihydro-indol-1-ylmethyl)-cyclohexyl]-2-methyl-nicotinamide]	5.32	7.23
O=C(N[C@H]1CC[C@H](CN2C(=O)Cc3ccc(F)cc32)CC1)c1cc(C(F)(F)F)ccc1Cl [Example 3.2, Trans-2-Chloro-N-[4-(6-fluoro-2-oxo-2,3-dihydro-indol-1-ylmethyl)-cyclohexyl]-5-trifluoromethyl-bcnzamide]	5.41	7.33
Cc1ncc(Cl)cc1C(=O)N[C@H]1CC[C@H](CN2C(=O)C(C)(F)c3ccc(Cl)cc32)CC1 (single isomer, unassigned) [Example 2.33, Trans-5-Chloro-N-[4-(-6-chloro-3-fluoro-3-methyl-2-oxo-2,3-dihydro-indol-1-ylmethyl)-cyclohexyl]-2-methyl-nicotinamide]	6.06	7.36
CCn1c(=O)n(C[C@H]2CC[C@H](NC(=O)c3cc(Cl)cnc3C)CC2)c2ccccc21 [Example 2.46, Trans-5-Chloro-N-[4-(3-ethyl-2-oxo-2,3-dihydro-benzoimidazol-1-ylmethyl)-cyclohexyl]-2-methyl-nicotinamide]	6.59	7.36
Cc1ncc(Cl)cc1C(=O)N[C@H]1CC[C@H](CN2C(=O)C(C)(C)c3cccc(Cl)c32)CC1 [Example 2.15, Trans-5-Chloro-N-[4-(7-chloro-3,3-dimethyl-2-oxo-2,3-dihydro-indol-1-ylmethyl)-cyclohexyl]-2-methyl-nicotinamide]	6.03	7.77
Cc1ncc(Cl)cc1C(=O)N[C@H]1CC[C@H](CN2C(=O)C(C)(C)c3ccccc32)CC1 [Example 1.3, Trans-5-chloro-N-[4-(3,3-dimethyl-2-oxo-2,3-dihydro-indol-1-ylmethyl)-cyclohexyl]-2-methyl-icotinamide]	5.42	7.32
Cc1cc2c(cc1C)C(C)(F)C(=O)N2C[C@H]1CC[C@H](NC(=O)c2cc(Cl)cnc2C)CC1 (single isomer, unassigned; enantiomer 2) [Example 2.55, Enantiomer 2 of Trans-5-Chloro-N-[4-(3-fluoro-3,5,6-trimethyl-2-oxo-2,3-dihydro-indol-1-ylmethyl)-cyclohexyl]-2-methyl-nicotinamide]	5.34	7.22
Cc1ncc(Cl)cc1C(=O)N[C@H]1CC[C@H](Cn2c(=O)n(CC(C)C)c3ccccc32)CC1 [Example 2.47, Trans-5-Chloro-N-[4-(3-isobutyl-2-oxo-2,3-dihydro-benzoimidazol-1-ylmethyl)-cyclohexyl]-2-methyl-nicotinamide]	6.53	7.74
COc1ccc2c(c1)N(C[C@H]1CC[C@H](NC(=O)c3cc(Cl)cnc3C)CC1)C(=O)C2(C)C [Example 2.28, Trans-5-Chloro-N-[4-(6-methoxy-3,3-dimethyl-2-oxo-2,3-dihydro-indol-1-ylmethyl)-cyclohexyl]-2-methyl-nicotinamide]	5.52	7.42
Cc1ncc(Cl)cc1C(=O)N[C@H]1CC[C@H](CN2C(=O)[C@@](C)(F)c3ccccc32)CC1 [Example 2.20, Trans-5-Chloro-N-[4-((S)-3-fluoro-3-methyl-2-oxo-2,3-dihydro-indol-1-ylmethyl)-cyclohexyl]-2-methyl-nicotinamide]	5.34	7.21
Cc1ncc(Cl)cc1C(=O)N[C@H]1CC[C@H](Cn2c(=O)n(C)c3ccccc32)CC1 [Example 2.50, Trans-5-Chloro-2-methyl-N-[4-(3-methyl-2-oxo-2,3-dihydro-benzoimidazol-1-ylmethyl)-cyclohexyl]-nicotinamide]	5.45	7.07
CCn1c(=O)n(C[C@H]2CC[C@H](NC(=O)c3cc(C(F)(F)F)ccc3Cl)CC2)c2ccccc21 [Example 3.4, Trans-2-Chloro-N-[4-(3-ethyl-2-oxo-2,3-dihydro-bcnzoimidazol-1-ylmethyl)-cyclohexyl]-5-trifluoromethyl-benzamide]	5.71	7.74
Cc1ncc(Cl)cc1C(=O)N[C@H]1CC[C@H](CN2C(=O)C3(CC3)c3cc(F)ccc32)CC1 [Example 2.6, Trans-5-chloro-N-[-4-((5′-fluoro-2′-oxospiro[cyclopropane-1,3′-indoline]-1′-yl)methyl)cyclohexyl]-2-methyl nicotinamide]	6.09	7.92
Cc1ncc(Cl)cc1C(=O)N[C@H]1CC[C@H](CN2C(=O)C(C)(C)c3ccc(Cl)cc32)CC1 [Example 2.29, Trans-5-Chloro-N-[4-(6-chloro-3,3-dimethyl-2-oxo-2,3-dihydro-indol-1-ylmethyl)-cyclohexyl]-2-methyl-nicotinamide]	5.34	7.85
Cc1cccc2c1C(C)(C)C(=O)N2C[C@H]1CC[C@H](NC(=O)c2cc(Cl)cnc2C)CC1 [Example 2.27, Trans-5-Chloro-2-methyl-N-[4-(3,3,4-trimethyl-2-oxo-2,3-dihydro-indol-1-ylmethyl)-cyclohexyl]-nicotinamide]	5.32	6.80
Cc1cccc2c1N(C[C@H]1CC[C@H](NC(=O)c3cc(C(F)(F)F)ccc3Cl)CC1)C(=O)C2(C)C [Example 2.23, Trans-2-Chloro-5-trifluoromethyl-N-[4-(3,3,7-trimethyl-2-oxo-2,3-dihydro-indol-1-ylmethyl)-cyclohexyl]-benzamide]	5.67	7.24
Cc1ncc(Cl)cc1C(=O)N[C@H]1CC[C@H](CN2C(=O)C(F)(F)c3ccc(Cl)cc32)CC1 [Example 2.26, Trans-5-Chloro-N-[4-(6-chloro-3,3-difluoro-2-oxo-2,3-dihydro-indol-1-ylmethyl)-cyclohexyl]-2-methyl-nicotinamide]	5.51	6.80
